Assay results reported in US7807162B2, “Single domain VHH antibodies against von Willebrand factor” (Ablynx N.V., priority 2005, dated 2010).
Several values for one entry are separate records, joined by “and”; a condition that tells them apart may be missing. Equal entries are not always repeated.

What was measured:
[1] = test system: cyclic flow reductions (CFRs) in injured, stenosed femoral artery; experiment: Folts thrombosis model in baboons: length/inhibition of cyclic flow reductions (CFRs); assay type: in vivo, baboon (Papio ursinus); details: for effective dose: Folts model; for Length of CFRs: individual baboons 13, 14, 15
Procedure: The study protocol that was applied is the original Folts model and some modifications described below (Folts J D, et al, Circulation. 1976; 54:365-370). Healthy male or female baboons (Papio ursinus) were used. The animals were 8-17 kg of weight and were disease-free for at least 2 weeks prior to use. The baboons were fed with dry standard food only. The baboons were used at different time points. […] Animals were anaesthetized and body temperature is maintained at 37° C. with a heating table. A segment of a femoral artery was dissected free from surrounding tissue. A shunt was placed between the femoral vein and femoral artery to obtain high shear rates. The mean and phasic blood flow was recorded continuously throughout the experiment. Baseline flow was recorded for 20 minutes. […] A clamp was placed over the injured site to create an external stenosis. A gradual decline in blood flow due to platelet adhesion and aggregation was observed. When flow was reduced to zero, blood flow was restored by opening the clamp to dislodge the platelet-rich thrombus. This repetitive pattern of decreasing blood flow following mechanical restoration is referred to as cyclic flow reductions (CFRs). Additional endothelial injury was repeated if needed to finally obtain stable CFRs in these baboons. The number of times the thrombus needed to be dislodged determines the number of CFRs. FIG. 24 illustrates blood flow pattern during the Folts model in baboons. […] This procedure was repeated for several times with escalating doses of the test substance. The anti-thrombotic effect was quantified by comparing the length of CFRs before and after drug administration. When full inhibition of CFRs was observed, a new injury was applied in order to confirm that the inhibition was an effect of the treatment but not of a natural healing phenomenon.

[2] = Bleeding analysis in Folts baboons (blood loss in gauzes)
Procedure: To analyze bleeding, an incision was made with a scalpel in the groin. This was done at 15 minutes after recording baseline flow, when the injury was made in the artery. Gauzes were inserted in the wound and replaced every 30 minutes just before each new dose of test compound. The amount of blood loss after each dose of test compound was determined by weighing the gauzes.

[3] = test system: cyclic flow reductions (CFRs) in injured, stenosed femoral artery; experiment: Use of vWF as an antidote for ALX-0081 in the baboon Folts model; assay type: in vivo, baboon (Papio ursinus)
Description: The experimental procedure followed the original Folts model with the modifications as described in the previous example 18.
Healthy male baboons (Papio ursinus) were used in this study. The animals were 9-12 kg of weight and were disease-free for at least 2 weeks prior to use. The baboons were fed with dry standard food only.

[4] = test system: platelet adhesion to collagen type III; experiment: Inhibition of platelet adhesion by nanobodies in a flow (perfusion) chamber; assay type: cell-based, human; details: Table 41
Procedure: The protein samples were analysed in a perfusion chamber. Thermanox coverslips (Nunc) were soaked overnight in 80% ethanol, rinsed thoroughly with distilled water and air-dried. Human placental collagen type III (Sigma) was solubilized in 0.05 mol/l acetic acid and sprayed on the coverslips at a final density of 30 μg/cm^2 with a retouching airbrush. After spraying the coverslips were blocked with 1% human albumin solution in PBS for at least 1 hour at RT. Perfusions were performed with a single-pass perfusion chamber under non-pulsatile flow conditions using a modified small perfusion chamber with a slit height of 0.1 mm and a slit width of 2 mm. Blood was obtained by venipuncture from healthy volunteers and anti-coagulated with Penta/PPACK. Triplicate coverslips were inserted into the chamber. […] After a perfusion run, the coverslip was taken from the chamber, rinsed in Hepes buffered saline (10 mM Hepes, 150 mM NaCL, ph 7.4), fixed in 0.5% glutaraldehyde in PBS, dehydrated in methanol and stained with May-Grünwald and Giemsa (Riedel de Haën). Platelet deposition was evaluated as platelet surface coverage using light microscopy and computer-assisted analysis.

[5] = number of experiments with inhibition / total number of independent repeats

Molecule: Reopro: drug currently used in the clinic, comparator in the Folts model
- effective dose [1]: 0.25 mg/kg
- effective dose ([1]; inhibition of CFRs, final dose, ALX-0081: + […] dose/kg/hour): 0.17 to 0.42 mg/kg
- Length of CFRs ([1]; Reopro final dose 20 μg/kg): 98 s and 82 s and 254 s
- Length of CFRs ([1]; Reopro final dose 70 μg/kg): 90 s (2×) and 248 s
- Length of CFRs ([1]; Reopro final dose 170 μg/kg): 90 s and >1800 s (2×)
- Length of CFRs ([1]; Reopro final dose 420 μg/kg): >1800 s
- Length of CFRs ([1]; Reopro final dose 920 μg/kg): >1800 s
- Length of CFRs ([1]; Reopro-treated, after Epinephrin): >1200 s
- final dose needed for full inhibition of the CFRs ([1]; baboons 13, 14 and 15, bolus injection only): 0.17 to 0.42 mg/kg
- CFRs upon a new injury ([1]; new injury applied at full inhibition of CFRs): complete inhibition of the CFRs was retained
- Inhibition of CFRs [1, 5]: 3/3
- Inhibition of CFRs after administration of Epinephrin [1, 5]: 3/3
- Inhibition of CFRs after new injury [1, 5]: 3/3
- therapeutic window in the Folts model ([2]; antithrombotic effect versus blood loss): much more narrow
- Average of total blood loss ([2]; sum of blood loss from the first five doses of test compound, relative to the second control gauze): 44

Molecule: vWF: vWF evaluated as an antidote for ALX-0081
- reversal of the activity of ALX-0081 on CFRs ([3]; CFRs returned after 250 IU plus extra 250 IU of vWF): can be reversed by administration of vWF
- Length of CFRs ([3]; second 250 IU vWF after 30 μg/kg + 45 μg/kg/hour ALX-0081, baboons 1-3): 246 s and 256 s and 230 s

B1: 12B6H2-3a-12B6H2 (protein)
VHH: EVQLVESGGGLVQPGGSLRLSCAASGRTFSYNPMGWFRQAPGKGREVVAAISRTGGSTYYARSVEGRFTISRDNAKRMVYLQMNSLRAEDTAVYYCAAAGVRAEDGRVRTLPSEYNFWGQGTQVTVSSAAAEVQLVESGGGLVQPGGSLRLSCAASGRTFSYNPMGWFRQAPGKGREVVAAISRTGGSTYYARSVEGRFTISRDNAKRMVYLQMNSLRAEDTAVYYCAAAGVRAEDGRVRTLPSEYNFWGQGTQVTVSS
- % Platelet adhesion ([4]; 0.3 μg/ml nanobody): 30 ± 16%
- % Platelet adhesion ([4]; 0.6 μg/ml nanobody): 17 ± 6%
